# Test results published in patent US20250368633A1, “AZEPINE FUSED RING COMPOUND AS RIPK1 INHIBITOR AND USE THEREOF” (ARTIVILA BIOPHARMA, priority 2022, published 2025).
# pEC50, pIC50: −log10 of the molar value.
# Experiments:
# U937 cells [1] = assay: EC50 of necroptosis inhibition in U937 cells (TSZ-induced, CellTiter-Glo); format: cell-based; details: Homo sapiens, U-937; TSZ (hTNF-α, SM-164, Z-VAD-FMK) 20 hours; 10 concentration points; read-out: EC50 intervals of necroptosis inhibition in U937 cells
# Method in brief: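 Luminescent ATP readout (CellTiter-Glo) after 20 h gave viability of TSZ-challenged U937 cells; compounds were added 15 min ahead of TNF-α/SM-164/Z-VAD-FMK. EC50 derived by variable-slope nonlinear regression of inhibition relative to no-TSZ and TSZ-alone controls.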
# U937 cells [2] = assay: Inhibition rate of compound (1 μM) on necroptosis of U937 cells (TSZ-induced, CellTiter-Glo); format: cell-based; details: TSZ (hTNF-α, SM-164, Z-VAD-FMK) 20 hours
# Method in brief: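 Percent inhibition comes from ATP luminescence (CellTiter-Glo), referenced to wells without TSZ and wells with TSZ alone. The compound was added to U937 cells 15 min ahead of a TNF-α/SM-164/Z-VAD-FMK mix, followed by 20 h culture at 37° C, 5% CO2.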
# RIPK1 kinase [3] = biological target: T1, RIPK1 kinase (Homo sapiens, UniProt Q13546); assay: In vitro RIPK1 kinase activity IC50 assay (ADP-Glo); format: biochemical; details: ATP 10 μM; MBP substrate 100 μg/mL; 8 concentration points; read-out: IC50 range of compounds for RIPK1 kinase activity
# T1 construct: purchased Promega VA7593
# T1 sequence (Q13546 1-671): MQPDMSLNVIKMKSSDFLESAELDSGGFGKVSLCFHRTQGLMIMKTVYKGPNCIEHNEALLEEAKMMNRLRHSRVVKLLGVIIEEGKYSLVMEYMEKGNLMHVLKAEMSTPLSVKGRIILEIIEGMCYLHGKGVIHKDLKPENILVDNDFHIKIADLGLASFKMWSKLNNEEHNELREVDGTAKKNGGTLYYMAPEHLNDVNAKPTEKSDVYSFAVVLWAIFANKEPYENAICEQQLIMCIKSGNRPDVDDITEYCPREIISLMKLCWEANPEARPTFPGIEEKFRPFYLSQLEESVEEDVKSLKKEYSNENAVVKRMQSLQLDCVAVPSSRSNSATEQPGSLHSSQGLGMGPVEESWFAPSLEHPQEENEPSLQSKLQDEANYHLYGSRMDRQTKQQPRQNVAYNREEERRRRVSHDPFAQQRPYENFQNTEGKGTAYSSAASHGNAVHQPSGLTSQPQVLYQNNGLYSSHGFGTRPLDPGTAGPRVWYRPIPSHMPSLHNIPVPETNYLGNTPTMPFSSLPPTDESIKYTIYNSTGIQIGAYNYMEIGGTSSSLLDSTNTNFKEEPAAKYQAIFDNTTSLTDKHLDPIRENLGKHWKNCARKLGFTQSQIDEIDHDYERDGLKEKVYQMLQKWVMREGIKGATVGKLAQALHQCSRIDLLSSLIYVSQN
# Experimental: RIPK1 kinase activity was assayed using the ADP-Glo assay and RIPK1 kinase reaction system (Promega, catalog number: VA7593). The RIPK1 kinase activity assay was performed according to the Promega kit manual.
# The experimental method was briefly described as below. The concentration of RIPK1 kinase in the RIPK1 kinase reaction system was determined by kinase titration and S/B10. The compound was diluted with 1× kinase buffer D (1% DMSO), 1 μL of 1 mM compound DMSO stock solution was added to 19 μL 1× kinase buffer D, and the compound was serially diluted with 1× kinase buffer D at a ratio of 1:5, for a total of 8 concentration points, and a control with the same DMSO volume was set. RIPK1 kinase was diluted with 1× kinase buffer D. 2.5×ATP/substrate was diluted with 1× kinase buffer D. The final concentration of ATP in the kinase reaction system was 10 μM. The final concentration of MBP substrate was 100 μg/mL. 1 μL of diluted compound and 2 μL of diluted RIPK1 kinase were mixed, incubated at room temperature for 15 minutes, 2 μL of 2.5×ATP/substrate was added, mixed, and incubated at room temperature for 1 hour. 5 μL ADP-Glo reagent was added to each well and incubated at room temperature for 1 hour. 10 μL ADP detection reagent was added to each well and incubated at room temperature for another 0.5-1 hour. The chemiluminescent signal was read with a microplate reader and the kinase activity inhibition rate was calculated. IC50 was obtained by fitting the nonlinear regression curve log [inhibitor] vs. response-variable slope (four parameters) in GraphPad Prism.
# RIPK1 kinase [4] = biological target: T1, RIPK1 kinase; assay: In vitro RIPK1 kinase activity assay (ADP-Glo), inhibition by compounds at 1 μM; format: biochemical; details: compound 1 μM; ATP 10 μM; MBP substrate 100 μg/mL; read-out: RIPK1 kinase activity inhibition rate range
# Method in brief: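 Read by ADP-Glo chemiluminescence as percent inhibition: RIPK1 kinase, 15-min room-temperature compound preincubation, then 1-h reaction with MBP (100 μg/mL final) and ATP (10 μM final). Enzyme level was set by titration.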
SMILES,pEC50 (U937 cells [1]),Inhibition rate range of compounds (1 μM) on U937 cell necroptosis (U937 cells [2]),pIC50 (RIPK1 kinase [3]),inhibition at 1 µM (RIPK1 kinase [4])
"C[C@@H](NC(=O)C(=O)N[C@H]1COc2ccc(C#CCCO)cc2N(C)C1=O)c1ccccc1 [Example 125, N^1-((S)-7-(4-hydroxybut-1-yn-1-yl)-5-methyl-4-oxo-2,3,4,5-tetrahydrobenzo[b][1,4]oxazepin-3-yl)-N^2-((R)-1-phenylethyl)oxalamide]",> 7.00,A (A: ≥90%),> 7.00,
"C[C@H](Cc1ccccc1)NC(=O)C(=O)N[C@H]1COc2ccc(C#CCCO)cc2N(C)C1=O [Example 153, N^1-((S)-7-(4-hydroxybut-1-yn-1-yl)-5-methyl-4-oxo-2,3,4,5-tetrahydrobenzo[b][1,4]oxazepin-3-yl)-N^2-((R)-1-phenylpropan-2-yl)oxalamide]",6.30 to 7.00,A (A: ≥90%),,50 to 74%
"CN1C(=O)[C@@H](NC(=O)C(=O)NC(C)(C)c2ccccc2)COc2ccc(C#CCN3CCOCC3)cc21 [Example 160, (S)—N^1-(5-methyl-7-(3-morpholinoprop-1-yn-1-yl)-4-oxo-2,3,4,5-tetrahydrobenzo[b][1,4]oxazepin-3-yl)-N^2-(2-phenylpropan-2-yl)oxalamide]",> 7.00,A (A: ≥90%),,≥ 75%
"C[C@@H](NC(=O)C(=O)N[C@H]1COc2ccc(C#CC[N+]3([O-])CCOCC3)cc2N(C)C1=O)c1ccccc1 [Example 161, 4-(3-((S)-5-methyl-4-oxo-3-(2-oxo-2-(((R)-1-phenylethyl)amino)acetamido)-2,3,4,5-tetrahydrobenzo[b][1,4]oxazepin-7-yl)prop-2-yn-1-yl) morpholine 4-oxide]",> 7.00,A (A: ≥90%),,50 to 74%
"Cc1ncsc1-c1ccc(CNC(=O)[C@@H]2C[C@@H](O)CN2C(=O)[C@@H](NC(=O)COCCOCCN2CCN(CC#Cc3ccc4c(c3)N(C)C(=O)[C@@H](NC(=O)C(=O)N[C@H](C)c3ccccc3)CO4)CC2)C(C)(C)C)cc1 [Example 162, N^1-((S)-7-(3-(4-(2-(2-(2-(((S)-1-((2S,4R)-4-hydroxy-2-((4-(4-methylthiazol-5-yl)benzyl)carbamoyl)pyrrolidin-1-yl)-3,3-dimethyl-1-oxobutan-2-yl)amino)-2-oxoethoxy)ethoxy)ethyl)piperazin-1-yl)prop-1-yn-1-yl)-5-methyl-4-oxo-2,3,4,5-tetrahydrobenzo[b][1,4]oxazepin-3-yl)-N^2-((R)-1-phenylethyl)oxalamide]",6.30 to 7.00,A (A: ≥90%),,≥ 75%
"Cc1ncsc1-c1ccc(CNC(=O)[C@@H]2C[C@@H](O)CN2C(=O)[C@@H](NC(=O)CCOCCOCCOCCN2CCN(CC#Cc3ccc4c(c3)N(C)C(=O)[C@@H](NC(=O)C(=O)N[C@H](C)c3ccccc3)CO4)CC2)C(C)(C)C)cc1 [Example 163, N^1-((S)-7-(3-(4-((S)-14-((2S,4R)-4-hydroxy-2-((4-(4-methylthiazol-5-yl)benzyl)carbamoyl)pyrrolidine-1-carbonyl)-15,15-dimethyl-12-oxo-3,6,9-trioxa-13-azahexadecyl)piperazin-1-yl)prop-1-yn-1-yl)-5-methyl-4-oxo-2,3,4,5-tetrahydrobenzo[b][1,4]oxazepin-3-yl)-N^2-((R)-1-phenylethyl)oxalamide]",> 7.00,A (A: ≥90%),,≥ 75%
"C[C@@H](NC(=O)C(=O)N[C@H]1CN(C)c2ccc(C#CCN3CCOCC3)cc2N(C)C1=O)c1ccccc1 [Example 166, N^1-((S)-1,5-dimethyl-8-(3-morpholinoprop-1-yn-1-yl)-2-oxo-2,3,4,5-tetrahydro-1H-benzo[b][1,4]diazepin-3-yl)-N^2-((R)-1-phenylethyl)oxalamide]",> 7.00,A (A: ≥90%),,25 to 49%
